# Assay results taken from patent US12404289B2 (Gilead Sciences, Inc., priority 2020, dated 2025).
# System: Respiratory syncytial virus (RSV) strain A2
# Assay: Hep-2 RSV2 384-well assay (EC50-HEP2-384)
# Type: cell-based
# Conditions: HEp-2 cells, RSV A2, MOI=4, 4 days, Table 3
row,Structure (SMILES),EC50 [nM]
1,"CC(C)C(=O)O[C@H]1[C@@H](OC(=O)C(C)C)[C@](C#N)(c2ccc3c(N)ncnn23)O[C@@H]1COP(=O)(N[C@@H](C)C(=O)OC1CC2(CCCC2)C1)Oc1ccc(C(C)(C)C)cc1 (stereo partly drawn) [Example 100b, (2R,3R,4R,5R)-2-(4-aminopyrrolo[2,1-f][1,2,4]triazin-7-yl)-5-((((4-(tert-butyl)phenoxy)(((S)-1-oxo-1-(spiro[3.4]octan-2-yloxy)propan-2-yl)amino)phosphoryl)oxy)methyl)-2-cyanotetrahydrofuran-3,4-diyl bis(2-methylpropanoate)]",95.5
2,"C[C@H](NP(=O)(OC[C@H]1O[C@@](C#N)(c2ccc3c(N)ncnn23)[C@H](O)[C@@H]1O)Oc1ccc(C(C)(C)C)cc1)C(=O)OCC1CC1 (stereo partly drawn) [Example 101b, Cyclopropyl methyl ((((2R,3S,4R,5R)-5-(4-aminopyrrolo[2,1-f][1,2,4]triazin-7-yl)-5-cyano-3,4-dihydroxytetrahydrofuran-2-yl)methoxy)(4-(tert-butyl)phenoxy)phosphoryl)-L-alaninate]",79.2
3,"CCC(=O)O[C@H]1[C@@H](OC(=O)CC)[C@](C#N)(c2ccc3c(N)ncnn23)O[C@@H]1COP(=O)(N[C@@H](C)C(=O)OCCC(C)(C)CC)Oc1ccccc1 (stereo partly drawn) [Example 105b, (2R,3R,4R,5R)-2-(4-aminopyrrolo[2,1-f][1,2,4]triazin-7-yl)-2-cyano-5-((((((S)-1-((3,3-dimethylpentyl)oxy)-1-oxopropan-2-yl)amino)(phenoxy)phosphoryl)oxy)methyl)tetrahydrofuran-3,4-diyl Dipropionate]",60.7
4,"CCC(CC)COC(=O)[C@H](C)N[P@](=O)(OC[C@H]1O[C@@](C#N)(c2ccc3c(N)ncnn23)[C@H](OC(C)=O)[C@@H]1OC(C)=O)Oc1cccc2c1CCCC2 [Example 143, (2R,3R,4R,5R)-2-(4-aminopyrrolo[2,1-f][1,2,4]triazin-7-yl)-2-cyano-5-((((S)—(((S)-1-(2-ethylbutoxy)-1-oxopropan-2-yl)amino)((5,6,7,8-tetrahydronaphthalen-1-yl)oxy)phosphoryl)oxy)methyl)tetrahydrofuran-3,4-diyl Diacetate]",737
5,"CCC(CC)COC(=O)[C@H](C)N[P@@](=O)(OC[C@H]1O[C@@](C#N)(c2ccc3c(N)ncnn23)[C@H](OC(=O)C(C)C)[C@@H]1OC(=O)C(C)C)Oc1cccc2c1CCCC2 [Example 146, (2R,3R,4R,5R)-2-(4-aminopyrrolo[2,1-f][1,2,4]triazin-7-yl)-2-cyano-5-((((R)—(((S)-1-(2-ethylbutoxy)-1-oxopropan-2-yl)amino)((5,6,7,8-tetrahydronaphthalen-1-yl)oxy)phosphoryl)oxy)methyl)tetrahydrofuran-3,4-diyl bis(2-methylpropanoate)]",459
6,"CCC(CC)COC(=O)[C@H](C)N[P@@](=O)(OC[C@H]1O[C@@](C#N)(c2ccc3c(N)ncnn23)[C@H](OC(C)=O)[C@@H]1OC(C)=O)Oc1cccc2c1CCCC2 [Example 147, (2R,3R,4R,5R)-2-(4-aminopyrrolo[2,1-f][1,2,4]triazin-7-yl)-2-cyano-5-((((R)—(((S)-1-(2-ethylbutoxy)-1-oxopropan-2-yl)amino)((5,6,7,8-tetrahydronaphthalen-1-yl)oxy)phosphoryl)oxy)methyl)tetrahydrofuran-3,4-diyl Diacetate]",334

# Same assay, conditions: human respiratory syncytial virus, HEp-2, 96 h, HEp-2 cells, RSV A2, MOI=4, 4 days, Table 3
row,Structure (SMILES),EC50 [nM]
1,"CC(C)C(=O)O[C@H]1[C@@H](OC(=O)C(C)C)[C@](C#N)(c2ccc3c(N)ncnn23)O[C@@H]1COP(=O)(N[C@@H](C)C(=O)OC1CC2(CCCC2)C1)Oc1ccc(C(C)(C)C)cc1 (stereo partly drawn) [Example 100a, (2R,3R,4R,5R)-2-(4-aminopyrrolo[2,1-f][1,2,4]triazin-7-yl)-5-((((4-(tert-butyl)phenoxy)(((S)-1-oxo-1-(spiro[3.4]octan-2-yloxy)propan-2-yl)amino)phosphoryl)oxy)methyl)-2-cyanotetrahydrofuran-3,4-diyl bis(2-methylpropanoate)]",111
2,"COC(C)(C)COC(=O)[C@H](C)NP(=O)(OC[C@H]1O[C@@](C#N)(c2ccc3c(N)ncnn23)[C@H](O)[C@@H]1O)Oc1cccc2ccccc12 (stereo partly drawn) [Example 128, 2-methoxy-2-methylpropyl ((((2R,3S,4R,5R)-5-(4-aminopyrrolo[2,1-f][1,2,4]triazin-7-yl)-5-cyano-3,4-dihydroxytetrahydrofuran-2-yl)methoxy)(naphthalen-1-yloxy)phosphoryl)-L-alaninate]",525
3,"CCC(CC)COC(=O)[C@H](C)NP(=O)(OC[C@H]1O[C@@](C#N)(c2ccc3c(N)ncnn23)[C@H](O)[C@@H]1O)Oc1ccc2c(c1)CCCC2 (stereo partly drawn) [Example 129, 2-ethylbutyl ((((2R,3S,4R,5R)-5-(4-aminopyrrolo[2,1-f][1,2,4]triazin-7-yl)-5-cyano-3,4-dihydroxytetrahydrofuran-2-yl)methoxy)((5,6,7,8-tetrahydronaphthalen-2-yl)oxy)phosphoryl)-L-alaninate]",362
4,"CCC(=O)O[C@H]1[C@@H](OC(=O)CC)[C@](C#N)(c2ccc3c(N)ncnn23)O[C@@H]1COP(=O)(N[C@@H](C)C(=O)OCC(C)(C)OC)Oc1ccc(C(C)(C)C)cc1 (stereo partly drawn) [Example 130, (2R,3R,4R,5R)-2-(4-aminopyrrolo[2,1-f][1,2,4]triazin-7-yl)-5-((((4-(tert-butyl)phenoxy)(((S)-1-(2-methoxy-2-methylpropoxy)-1-oxopropan-2-yl)amino)phosphoryl)oxy)methyl)-2-cyanotetrahydrofuran-3,4-diyl Dipropionate]",52.8
5,"COC(C)(C)COC(=O)[C@H](C)NP(=O)(OC[C@H]1O[C@@](C#N)(c2ccc3c(N)ncnn23)[C@H](OC(C)=O)[C@@H]1OC(C)=O)Oc1ccc(C(C)(C)C)cc1 (stereo partly drawn) [Example 131, (2R,3R,4R,5R)-2-(4-aminopyrrolo[2,1-f][1,2,4]triazin-7-yl)-5-((((4-(tert-butyl)phenoxy)(((S)-1-(2-methoxy-2-methylpropoxy)-1-oxopropan-2-yl)amino)phosphoryl)oxy)methyl)-2-cyanotetrahydrofuran-3,4-diyl Diacetate]",56.2
6,"CCC(CC)COC(=O)[C@H](C)NP(=O)(OC[C@H]1O[C@@](C#N)(c2ccc3c(N)ncnn23)[C@H](OC(=O)C(C)C)[C@@H]1OC(=O)C(C)C)Oc1ccc2c(c1)CCCC2 (stereo partly drawn) [Example 132, (2R,3R,4R,5R)-2-(4-aminopyrrolo[2,1-f][1,2,4]triazin-7-yl)-2-cyano-5-((((((S)-1-(2-ethylbutoxy)-1-oxopropan-2-yl)amino)((5,6,7,8-tetrahydronaphthalen-2-yl)oxy)phosphoryl)oxy)methyl) tetrahydrofuran-3,4-diyl bis(2-methylpropanoate)]",126
7,"CCC(=O)O[C@H]1[C@@H](OC(=O)CC)[C@](C#N)(c2ccc3c(N)ncnn23)O[C@@H]1COP(=O)(N[C@@H](C)C(=O)OCC1CCC1)Oc1ccccc1 (stereo partly drawn) [Example 134, (2R,3R,4R,5R)-2-(4-aminopyrrolo[2,1-f][1,2,4]triazin-7-yl)-2-cyano-5-((((((S)-1-(cyclobutylmethoxy)-1-oxopropan-2-yl)amino)(phenoxy)phosphoryl)oxy)methyl)tetrahydrofuran-3,4-diyl Dipropionate]",93.8
8,"CC(C)COC(=O)[C@H](C)NP(=O)(OC[C@H]1O[C@@](C#N)(c2ccc3c(N)ncnn23)[C@H](OC(=O)CC(C)C)[C@@H]1OC(=O)CC(C)C)Oc1ccc(C(C)(C)C)cc1 (stereo partly drawn) [Example 139, (2R,3R,4R,5R)-2-(4-aminopyrrolo[2,1-f][1,2,4]triazin-7-yl)-5-((((4-(tert-butyl)phenoxy)(((S)-1-isobutoxy-1-oxopropan-2-yl)amino)phosphoryl)oxy)methyl)-2-cyanotetrahydrofuran-3,4-diyl bis(3-methylbutanoate)]",194
9,"CCC(CC)COC(=O)[C@H](C)NP(=O)(OC[C@H]1O[C@@](C#N)(c2ccc3c(N)ncnn23)[C@H](O)[C@@H]1O)Oc1ccc(OC2CCCCC2)cc1 (stereo partly drawn) [Example 140, 2-ethylbutyl ((((2R,3S,4R,5R)-5-(4-aminopyrrolo[2,1-f][1,2,4]triazin-7-yl)-5-cyano-3,4-dihydroxytetrahydrofuran-2-yl)methoxy)(4-(cyclohexyloxy)phenoxy)phosphoryl)-L-alaninate]",302
10,"COCCOC(=O)[C@H](C)NP(=O)(OC[C@H]1O[C@@](C#N)(c2ccc3c(N)ncnn23)[C@H](O)[C@@H]1O)Oc1ccc(C(C)(C)C)cc1 (stereo partly drawn) [Example 141, 2-methoxyethyl ((((2R,3S,4R,5R)-5-(4-aminopyrrolo[2,1-f][1,2,4]triazin-7-yl)-5-cyano-3,4-dihydroxytetrahydrofuran-2-yl)methoxy)(4-(tert-butyl)phenoxy)phosphoryl)-L-alaninate]",305
11,"C[C@H](NP(=O)(OC[C@H]1O[C@@](C#N)(c2ccc3c(N)ncnn23)[C@H](O)[C@@H]1O)Oc1ccc(C(C)(C)C)cc1)C(=O)OC1CCCCC1 (stereo partly drawn) [Example 142, cyclohexyl ((((2R,3S,4R,5R)-5-(4-aminopyrrolo[2,1-f][1,2,4]triazin-7-yl)-5-cyano-3,4-dihydroxytetrahydrofuran-2-yl)methoxy)(4-(tert-butyl)phenoxy)phosphoryl)-L-alaninate]",73.5
12,"CCC(CC)COC(=O)[C@H](C)N[P@](=O)(OC[C@H]1O[C@@](C#N)(c2ccc3c(N)ncnn23)[C@H](OC(=O)C(C)C)[C@@H]1OC(=O)C(C)C)Oc1cccc2c1CCCC2 [Example 144, (2R,3R,4R,5R)-2-(4-aminopyrrolo[2,1-f][1,2,4]triazin-7-yl)-2-cyano-5-((((S)—(((S)-1-(2-ethylbutoxy)-1-oxopropan-2-yl)amino)((5,6,7,8-tetrahydronaphthalen-1-yl)oxy)phosphoryl)oxy)methyl)tetrahydrofuran-3,4-diyl bis(2-methylpropanoate)]",780
13,"CC(=O)O[C@H]1[C@@H](OC(C)=O)[C@](C#N)(c2ccc3c(N)ncnn23)O[C@@H]1COP(=O)(N[C@@H](C)C(=O)OC1CCCCC1)Oc1ccc(C(C)(C)C)cc1 (stereo partly drawn) [Example 148, (2R,3R,4R,5R)-2-(4-aminopyrrolo[2,1-f][1,2,4]triazin-7-yl)-5-((((4-(tert-butyl)phenoxy)(((S)-1-(cyclohexyloxy)-1-oxopropan-2-yl)amino)phosphoryl)oxy)methyl)-2-cyanotetrahydrofuran-3,4-diyl Diacetate]",59.3
